{"source": "patent US7531162B2", "about": "“Transcobalamin receptor binding conjugates useful for treating abnormal cellular proliferation” (Mayo Foundation for Medical Education and Research, priority 2000, dated 2009)", "key": {"[1]": {"conditions": "Deprez-Decampaneere et al. 1978; cited from earlier work"}, "Intrinsic Factor (IF)": {"system": "Intrinsic Factor (IF)", "test": "modified intrinsic factor blocking antibody (IFBA) assay, competition with Co-57-cyanocobalamin", "format": "binding", "conditions": "for binding to IF in the IFBA assay (in words): competition with Co-57 cyanocobalamin, compared with negative reference; for averaged percent binding to IF: non-labeled solution (1000 μg/10 mL saline, 1 μL) preincubated with purified IF, then Co-57-cyanocobalamin, average over five patients' runs, estimated from counts vs Clinical run", "protocol": "(§1) Under dim light, 1000 μg of the non-labeled methyl-, adenosyl-, and cyanocobalamin-b-(4-aminobutyl)amide-DTPA, as well as 1000 μg of cyanocobalamin and DTPA (Sigma, St. Louis, Mo. 63178), were separately dissolved in 10 mL of normal saline at room temperature. Each of the five 1000 μg/10 mL samples was stored in sealed, aluminum-wrapped 10 mL vials to prevent exposure to light. No buffers were added to the solutions. The pH of the solutions, measured by a Beckman 40 pH meter (Beckman Instruments, Fullerton, Calif.): Cyanocobalamin=5.75, DTPA=3.78; cyano, methyl and adenosylcobalamin-DTPA analogues were 5.75, 6.10, and 6.19, respectively.\nTo assess in vitro binding to Intrinsic Factor (IF) and Transcobalamins (TC), the intrinsic factor blocking antibody (IFBA) and Unsaturated vitamin B12 Binding Capacity (UBBC) assays were performed with serum randomly obtained from five patients being evaluated for pernicious anemia at the Mayo Clinic. The IFBA and UBBC assays were first performed for clinical purposes as previously described by V. F. Fairbanks et al., Mayo Clin. Proc., 58, 203 (1983); Intrinsic Factor Blocking Antibody (^57Co) Radioassay-Package insert, Diagnostic Products Corp.; D. Grossowicz et al., Proc. Exp. Biol., 109, 604 (1962) and C. Gottlieb et al., Blood, 25, 6 (1965).\nNext, the serum from the same five patients underwent modified IFBA and UBBC assays. Specifically, 1 μL of the five previously described solutions was separately incubated with purified IF or serum, to potentially saturate all IF and TC-binding sites.\nAfter incubation for 20 minutes at room temperature and for another 20 minutes at 4° C., 500 μl of the stock (1000 μg/l) Cobalt-57-cyanocobalamin (Mallinckrodt Medical, Inc., St. Louis, Mo. 63134) solution was added and the usual IFBA and UBBC protocols were then followed. All supernatant activity was counted for four minutes on a gamma counter (Micromedix 10/20, Huntsville, Ala. 35805).\nBy using the counts of the Clinical run divided into the counts of the five solutions, the efficacy of binding to intrinsic factor can be estimated. The averaged percent binding of the five solutions to IF was: cyanocobalamin=92.5%; methyl-cobalamin-b-(4-aminobutyl)-amide-DTPA=63.2%; cyanocobalamin-b-(4-aminobutyl)-amide-DTPA=52.9%; adenosylcobalamin-b-(4-aminobutyl)-amide-DTPA=41.0% and 0.8% for DTPA."}, "transcobalamin proteins [2]": {"system": "transcobalamin proteins", "test": "modified Unsaturated vitamin B12 Binding Capacity (UBBC) assay with patient serum", "design": "species or system human", "conditions": "non-labeled solution (1000 μg/10 mL saline, 1 μL) preincubated with serum of five patients, then Co-57-cyanocobalamin", "protocol": "Louis, Mo. 63178), were separately dissolved in 10 mL of normal saline at room temperature. […] No buffers were added to the solutions. The pH of the solutions, measured by a Beckman 40 pH meter (Beckman Instruments, Fullerton, Calif.): […] To assess in vitro binding to Intrinsic Factor (IF) and Transcobalamins (TC), the intrinsic factor blocking antibody (IFBA) and Unsaturated vitamin B12 Binding Capacity (UBBC) assays were performed with serum randomly obtained from five patients being evaluated for pernicious anemia at the Mayo Clinic. The IFBA and UBBC assays were first performed for clinical purposes as previously described by V. F. Fairbanks et al., Mayo Clin. Proc., 58, 203 (1983); Intrinsic Factor Blocking Antibody (^57Co) Radioassay-Package insert, Diagnostic Products Corp.; D. Grossowicz et al., Proc. Exp. Biol., 109, 604 (1962) and C. Gottlieb et al., Blood, 25, 6 (1965). Next, the serum from the same five patients underwent modified IFBA and UBBC assays. Specifically, 1 μL of the five previously described solutions was separately incubated with purified IF or serum, to potentially saturate all IF and TC-binding sites. […] Louis, Mo. 63134) solution was added and the usual IFBA and UBBC protocols were then followed. All supernatant activity was counted for four minutes on a gamma counter (Micromedix 10/20, Huntsville, Ala. 35805). […] Comparison of cyanocobalamin-DTPA to cyanocobalamin was 66.4% (Transcobalamin II receptor imaging via radiolabeled diethylene-triaminepentaacetate cobalamin analogs, J. Nucl. Med., 38, 717-723 (1997); also described in U.S. Pat. […] A. Collins, […], Tumor Imaging Indium-111-labeled DTPA-adenosylcobalamin, Mayo Clinic Proceedings, 1999; 74; 687-691; Biodistribution of Radiolabeled Adenosylcobalamin in Humans, Review of 30 patents submitted to Mayo Clinic Proceedings). This should improve tumor-to-background ratio, which can be evaluated in murine tumor models. Attachment of either the adenosyl and methyl group as the beta ligand should improve the biological activity as it did with the cyanocobalamin mono-DTPA compound (Transcobalamin II receptor imaging via radiolabeled diethylene-triaminepentaacetate cobalamin analogs, J. Nucl. Med., 38, 717-723 (1997); also described in U.S. Pat."}, "[3]": {"test": "pH of 1000 μg/10 mL solutions in normal saline", "format": "physicochemical", "conditions": "1000 μg in 10 mL normal saline, room temperature, no buffers", "protocol": "as §1"}, "transcobalamin proteins [4]": {"system": "transcobalamin proteins", "conditions": "relative to cyanocobalamin; J. Nucl. Med. 38, 717-723 (1997), U.S. Pat. No. 5,739,313; cited from earlier work"}}}
{"compound": "COc1cccc2c1C(=O)c1c(O)c3c(c(O)c1C2=O)CC(O)(C(C)=O)CC3OC1CC(NC(=O)C(N)CC(C)C)C(O)C(C)O1", "note": "(single isomer, unassigned) [D isomer]", "values": [{"measurement": "hydrolysis in vivo to regenerate daunorubicin", "setting": "[1]", "result": "not"}]}
{"compound": "O=C(O)CN(CCN(CC(=O)O)CC(=O)O)CCN(CC(=O)O)CC(=O)O", "note": "[DTPA, diethylenetriaminepentaacetic acid]", "values": [{"measurement": "binding to IF in the IFBA assay (in words)", "setting": "Intrinsic Factor (IF)", "result": "does not significantly bind to IF"}, {"measurement": "averaged percent binding to IF", "setting": "Intrinsic Factor (IF)", "result": 0.8, "unit": "%"}, {"measurement": "averaged percent binding to the transcobalamin proteins", "setting": "transcobalamin proteins [2]", "result": 3.6, "unit": "%"}, {"measurement": "pH of the solution", "setting": "[3]", "result": 3.78}]}
{"compound": "COc1cccc2c1C(=O)c1c(O)c3c(c(O)c1C2=O)C[C@@](O)(C(C)=O)C[C@@H]3O[C@H]1C[C@H](NC(=O)[C@@H](N)CC(C)C)C(O)[C@H](C)O1", "note": "(stereo partly drawn) [N-(L-leucyl) daunorubicin]", "values": [{"measurement": "hydrolysis in vivo to regenerate daunorubicin", "setting": "[1]", "result": "hydrolyzed in vivo to regenerate daunorubicin"}]}
{"compound": "Adenosylcobalamin-b-(4-aminobutyl)amide DTPA", "values": [{"measurement": "averaged percent binding to IF", "setting": "Intrinsic Factor (IF)", "result": 41.0, "unit": "%"}, {"measurement": "averaged percent binding to the transcobalamin proteins", "setting": "transcobalamin proteins [2]", "result": 90.4, "unit": "%"}, {"measurement": "pH of the solution", "setting": "[3]", "result": 6.19}]}
{"compound": "Cyanocobalamin-b-(4-aminobutyl)amide DTPA", "values": [{"measurement": "averaged percent binding to IF", "setting": "Intrinsic Factor (IF)", "result": 52.9, "unit": "%"}, {"measurement": "averaged percent binding to the transcobalamin proteins", "setting": "transcobalamin proteins [2]", "result": 66.4, "unit": "%"}, {"measurement": "pH of the solution", "setting": "[3]", "result": 5.75}, {"measurement": "in vitro UBBC comparison to cyanocobalamin", "setting": "transcobalamin proteins [4]", "result": 66.4, "unit": "%"}]}
{"compound": "Methylcobalamin-b-(4-aminobutyl)amide DTPA", "values": [{"measurement": "averaged percent binding to IF", "setting": "Intrinsic Factor (IF)", "result": 63.2, "unit": "%"}, {"measurement": "averaged percent binding to the transcobalamin proteins", "setting": "transcobalamin proteins [2]", "result": 94.0, "unit": "%"}, {"measurement": "pH of the solution", "setting": "[3]", "result": 6.10}]}
{"compound": "cyanocobalamin", "values": [{"measurement": "binding to IF in the IFBA assay (in words)", "setting": "Intrinsic Factor (IF)", "result": "competitively inhibit Co-57 cyanocobalamin from binding to intrinsic factor"}, {"measurement": "averaged percent binding to IF", "setting": "Intrinsic Factor (IF)", "result": 92.5, "unit": "%"}, {"measurement": "averaged percent binding to the transcobalamin proteins", "setting": "transcobalamin proteins [2]", "result": 100, "unit": "%"}, {"measurement": "pH of the solution", "setting": "[3]", "result": 5.75}]}
